Reference: the Kinase Knowledgebase extract (Sharma et al. 2016)

Key:
[1] = target: PIK3CD (Human) (UniProt O00329); test: Enzyme Assay
[2] = target: PIK3CG (human) (UniProt P48736); test: Enzyme Assay
[3] = target: PIK3CB (Human) (UniProt P42338); test: Enzyme Assay
[4] = target: PIK3CD (Human) (UniProt O00329); test: Cell-Based Assay; details: raji

Sequence of PIK3CD (Human) (O00329 whole entry, looked up): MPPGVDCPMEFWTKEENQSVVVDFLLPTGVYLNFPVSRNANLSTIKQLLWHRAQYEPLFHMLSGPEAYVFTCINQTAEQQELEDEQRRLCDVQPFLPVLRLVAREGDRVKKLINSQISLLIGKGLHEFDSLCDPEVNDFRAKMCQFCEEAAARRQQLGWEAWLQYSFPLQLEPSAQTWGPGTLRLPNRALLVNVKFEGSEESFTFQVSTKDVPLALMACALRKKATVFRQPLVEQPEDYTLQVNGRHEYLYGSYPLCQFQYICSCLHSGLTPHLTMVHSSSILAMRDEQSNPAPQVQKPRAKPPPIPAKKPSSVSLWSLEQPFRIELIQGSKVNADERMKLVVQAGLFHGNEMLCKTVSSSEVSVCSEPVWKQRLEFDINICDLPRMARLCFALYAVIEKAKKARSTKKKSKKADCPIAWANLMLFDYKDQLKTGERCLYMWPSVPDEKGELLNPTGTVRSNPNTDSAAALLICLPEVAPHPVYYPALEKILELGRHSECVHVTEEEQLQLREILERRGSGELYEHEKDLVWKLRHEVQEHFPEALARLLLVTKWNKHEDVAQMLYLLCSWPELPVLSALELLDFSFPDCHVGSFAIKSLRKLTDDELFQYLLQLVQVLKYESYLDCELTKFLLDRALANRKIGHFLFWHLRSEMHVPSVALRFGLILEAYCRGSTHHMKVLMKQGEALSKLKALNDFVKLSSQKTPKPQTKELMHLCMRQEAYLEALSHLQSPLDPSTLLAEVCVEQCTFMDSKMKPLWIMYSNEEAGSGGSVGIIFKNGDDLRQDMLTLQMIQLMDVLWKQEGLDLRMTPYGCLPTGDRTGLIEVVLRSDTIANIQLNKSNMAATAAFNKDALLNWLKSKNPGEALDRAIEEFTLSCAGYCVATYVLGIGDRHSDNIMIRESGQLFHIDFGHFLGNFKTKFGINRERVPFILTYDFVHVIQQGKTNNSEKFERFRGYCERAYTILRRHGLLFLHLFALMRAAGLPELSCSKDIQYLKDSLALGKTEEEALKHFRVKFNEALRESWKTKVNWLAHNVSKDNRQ
Sequence of PIK3CB (Human) (P42338 whole entry, looked up): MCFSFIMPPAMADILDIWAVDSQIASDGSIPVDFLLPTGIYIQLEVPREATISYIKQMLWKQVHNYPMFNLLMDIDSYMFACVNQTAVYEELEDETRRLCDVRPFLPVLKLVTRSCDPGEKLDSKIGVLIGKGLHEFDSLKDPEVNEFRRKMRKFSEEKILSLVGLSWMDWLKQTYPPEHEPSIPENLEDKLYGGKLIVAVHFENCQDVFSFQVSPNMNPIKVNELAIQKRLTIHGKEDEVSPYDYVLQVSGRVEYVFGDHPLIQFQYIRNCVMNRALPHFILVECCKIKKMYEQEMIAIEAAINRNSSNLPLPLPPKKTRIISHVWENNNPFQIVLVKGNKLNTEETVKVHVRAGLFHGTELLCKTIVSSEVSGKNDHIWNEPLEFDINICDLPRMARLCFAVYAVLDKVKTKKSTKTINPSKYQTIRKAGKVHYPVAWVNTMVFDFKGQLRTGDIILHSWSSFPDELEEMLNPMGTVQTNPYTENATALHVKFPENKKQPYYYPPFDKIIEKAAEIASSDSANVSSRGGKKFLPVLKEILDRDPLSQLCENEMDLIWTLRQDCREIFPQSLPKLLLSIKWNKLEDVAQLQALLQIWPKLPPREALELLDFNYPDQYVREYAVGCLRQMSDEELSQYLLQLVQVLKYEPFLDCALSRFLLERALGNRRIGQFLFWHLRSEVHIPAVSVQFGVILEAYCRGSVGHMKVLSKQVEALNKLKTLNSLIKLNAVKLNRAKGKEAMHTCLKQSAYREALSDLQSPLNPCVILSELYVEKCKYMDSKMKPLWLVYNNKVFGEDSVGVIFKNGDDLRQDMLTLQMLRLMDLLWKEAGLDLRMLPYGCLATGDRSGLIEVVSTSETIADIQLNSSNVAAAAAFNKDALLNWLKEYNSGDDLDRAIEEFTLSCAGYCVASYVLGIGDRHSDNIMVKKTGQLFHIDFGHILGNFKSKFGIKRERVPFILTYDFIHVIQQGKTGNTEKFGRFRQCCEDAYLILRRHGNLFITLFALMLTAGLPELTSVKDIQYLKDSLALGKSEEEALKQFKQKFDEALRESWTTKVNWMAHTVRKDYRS
Sequence of PIK3CG (human) (P48736 whole entry, looked up): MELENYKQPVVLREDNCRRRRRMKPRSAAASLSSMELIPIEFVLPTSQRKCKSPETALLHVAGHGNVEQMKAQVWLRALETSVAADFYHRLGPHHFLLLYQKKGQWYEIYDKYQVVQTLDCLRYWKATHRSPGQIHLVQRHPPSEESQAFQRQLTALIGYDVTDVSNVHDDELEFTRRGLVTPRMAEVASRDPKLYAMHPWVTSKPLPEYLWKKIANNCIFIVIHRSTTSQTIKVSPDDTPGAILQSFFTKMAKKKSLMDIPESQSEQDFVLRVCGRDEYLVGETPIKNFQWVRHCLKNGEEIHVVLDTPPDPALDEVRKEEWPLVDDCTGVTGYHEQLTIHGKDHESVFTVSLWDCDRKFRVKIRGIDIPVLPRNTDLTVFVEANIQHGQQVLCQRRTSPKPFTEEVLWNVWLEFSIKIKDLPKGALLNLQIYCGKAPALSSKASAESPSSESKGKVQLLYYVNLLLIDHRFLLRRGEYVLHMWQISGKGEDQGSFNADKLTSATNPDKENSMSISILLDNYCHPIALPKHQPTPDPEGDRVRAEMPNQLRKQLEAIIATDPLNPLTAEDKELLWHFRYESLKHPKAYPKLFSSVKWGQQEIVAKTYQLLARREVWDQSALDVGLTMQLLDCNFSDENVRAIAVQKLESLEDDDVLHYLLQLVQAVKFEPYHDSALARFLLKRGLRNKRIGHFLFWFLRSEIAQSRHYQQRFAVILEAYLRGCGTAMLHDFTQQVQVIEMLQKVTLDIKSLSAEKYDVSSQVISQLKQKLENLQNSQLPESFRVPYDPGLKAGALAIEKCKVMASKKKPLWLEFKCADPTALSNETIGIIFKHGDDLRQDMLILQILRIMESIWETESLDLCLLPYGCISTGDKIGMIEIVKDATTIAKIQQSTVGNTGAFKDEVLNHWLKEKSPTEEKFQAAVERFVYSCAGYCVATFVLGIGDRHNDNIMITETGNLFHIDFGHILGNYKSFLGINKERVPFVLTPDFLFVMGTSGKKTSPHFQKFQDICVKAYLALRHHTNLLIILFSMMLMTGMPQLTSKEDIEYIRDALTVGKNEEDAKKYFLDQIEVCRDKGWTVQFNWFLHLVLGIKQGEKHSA

SMILES	IC50 [1]	IC50 [2]	IC50 [3]	IC50 [4]
C[C@H](NC(=O)c1c(N)nn2cccnc12)c1cc2cccc(C#CC(C)(C)C)c2c(=O)n1-c1ccccc1	5000 to 10000 nM	1000 to 5000 nM	5000 to 10000 nM	1000 to 10000 nM
C[C@H](NC(=O)c1c(N)nn2cccnc12)c1cc2cccc(C#CC=O)c2c(=O)n1-c1ccccc1	1000 to 5000 nM	1 to 100 nM	1 to 500 nM	100 to 500 nM
COc1ncc(C#Cc2cccc3cc([C@H](C)NC(=O)c4c(N)nn5cccnc45)n(-c4ccccc4)c(=O)c23)cn1	5000 to 10000 nM	100 to 500 nM	5000 to 10000 nM	100 to 500 nM
C[C@H](NC(=O)c1c(N)nn2cccnc12)c1cc2ccc3ccccc3c2c(=O)n1-c1ccccc1	5000 to 10000 nM	500 to 1000 nM	5000 to 10000 nM	1000 to 10000 nM
C[C@H](NC(=O)c1c(N)nn2cccnc12)c1cc2cccc(C#Cc3cocn3)c2c(=O)n1-c1ccccc1	1000 to 5000 nM	1 to 100 nM	1000 to 5000 nM	100 to 500 nM
C[C@H](NC(=O)c1c(N)nn2cccnc12)c1cc2cccc(C#CCN3CCN(C)CC3)c2c(=O)n1-c1ccccc1	5000 to 10000 nM	100 to 500 nM	5000 to 10000 nM	100 to 500 nM
C[C@H](NC(=O)c1c(N)nn2cccnc12)c1cc2cccc(C#Cc3ccnn3C)c2c(=O)n1-c1ccccc1	5000 to 10000 nM	100 to 500 nM	5000 to 10000 nM	500 to 1000 nM
Cc1csc(C#Cc2cccc3cc([C@H](C)NC(=O)c4c(N)nn5cccnc45)n(-c4ccccc4)c(=O)c23)n1	5000 to 10000 nM	100 to 500 nM	5000 to 10000 nM	100 to 500 nM
C#Cc1cccc2nc([C@H](C)NC(=O)c3c(N)nn4cccnc34)n(-c3ccc(F)cc3)c(=O)c12	1000 to 5000 nM	1 to 100 nM	5000 to 10000 nM	1 to 100 nM
C[C@H](NC(=O)c1c(N)nn2cccnc12)c1cc2cccc(C#Cc3nccs3)c2c(=O)n1-c1ccccc1	5000 to 10000 nM	100 to 500 nM	5000 to 10000 nM	100 to 500 nM
Cc1scnc1C#Cc1cccc2cc([C@H](C)NC(=O)c3c(N)nn4cccnc34)n(-c3ccccc3)c(=O)c12	5000 to 10000 nM	100 to 500 nM	5000 to 10000 nM	100 to 500 nM
COc1ccc(C#Cc2cccc3cc([C@H](C)NC(=O)c4c(N)nn5cccnc45)n(-c4ccccc4)c(=O)c23)cn1	5000 to 10000 nM	100 to 500 nM	5000 to 10000 nM	500 to 1000 nM
C[C@H](NC(=O)c1c(N)nn2cccnc12)c1cc2cccc(C#Cc3cn[nH]c3)c2c(=O)n1-c1ccccc1	5000 to 10000 nM	1 to 100 nM	1000 to 5000 nM	100 to 500 nM
Cc1cnc(C(=O)N[C@@H](C)c2cc3cccc(C#Cc4cnn(C)c4)c3c(=O)n2-c2ccccc2)c(N)n1	5000 to 10000 nM	1000 to 5000 nM	5000 to 10000 nM	1000 to 10000 nM
C[C@H](NC(=O)c1c(N)nn2cccnc12)c1cc2cccc(C#CC3CNC3)c2c(=O)n1-c1ccccc1	1000 to 5000 nM	500 to 1000 nM	5000 to 10000 nM	1000 to 10000 nM
C[C@H](NC(=O)c1c(N)nn2cccnc12)c1cc2cccc(C#CCN3CCCC3=O)c2c(=O)n1-c1ccccc1	1 to 500 nM	1 to 100 nM	1000 to 5000 nM	1 to 100 nM
C#Cc1cccc2nc([C@H](C)NC(=O)c3c(N)nn4cccnc34)n(-c3ccccc3)c(=O)c12	1000 to 5000 nM	1 to 100 nM	1000 to 5000 nM	1 to 100 nM
COCC#Cc1cccc2cc([C@H](C)NC(=O)c3c(N)nn4cccnc34)n(-c3ccccc3)c(=O)c12	1000 to 5000 nM	1 to 100 nM	1000 to 5000 nM	100 to 500 nM
C[C@H](NC(=O)c1c(N)nn2cccnc12)c1cc2cccc(C#C[C@@H](C)O)c2c(=O)n1-c1ccccc1	500 to 1000 nM	1 to 100 nM	5000 to 10000 nM	100 to 500 nM
Cc1c(C#Cc2cccc3cc([C@H](C)NC(=O)c4c(N)nn5cccnc45)n(-c4ccccc4)c(=O)c23)cnn1C	5000 to 10000 nM	100 to 500 nM	5000 to 10000 nM	500 to 1000 nM
C[C@H](NC(=O)c1c(N)nn2cccnc12)c1cc2cccc(CC(=O)c3cn[nH]c3)c2c(=O)n1-c1ccccc1	1000 to 5000 nM	500 to 1000 nM	5000 to 10000 nM	100 to 500 nM
CC#Cc1cccc2cc(C(C)NC(=O)c3c(N)nn4cccnc34)c(-c3ccccc3)nc12 (stereo not given)	1000 to 5000 nM	100 to 500 nM	1000 to 5000 nM	1 to 100 nM
C[C@H](NC(=O)c1c(N)nn2cccnc12)c1cc2cccc(C#Cc3ccn[nH]3)c2c(=O)n1-c1ccccc1	5000 to 10000 nM	100 to 500 nM	5000 to 10000 nM	100 to 500 nM
C[C@H](NC(=O)c1c(N)nn2cccnc12)c1cc2cccc(C#Cc3cncn3C)c2c(=O)n1C1CC1	5000 to 10000 nM	1000 to 5000 nM	1000 to 5000 nM	100 to 500 nM
C[C@H](NC(=O)c1c(N)nn2cccnc12)c1cc2cccc(C#Cc3ccc(=O)n(C)c3)c2c(=O)n1-c1ccccc1	1000 to 5000 nM	1 to 100 nM	5000 to 10000 nM	100 to 500 nM

SMILES	IC50 [1]	IC50 [2]	IC50 [3]	IC50 [4]
C[C@H](NC(=O)c1c(N)nn2cccnc12)c1cc2cccc(C#CC3CCOCC3)c2c(=O)n1-c1ccccc1	5000 to 10000 nM	100 to 500 nM	5000 to 10000 nM	1 to 100 nM
CC(C)C#Cc1cccc2nc([C@H](C)NC(=O)c3c(N)nn4cccnc34)n(-c3ccccc3)c(=O)c12	5000 to 10000 nM	500 to 1000 nM	5000 to 10000 nM	500 to 1000 nM
Cc1ccc(C#Cc2cccc3cc([C@H](C)NC(=O)c4c(N)nn5cccnc45)n(-c4ccccc4)c(=O)c23)cn1	5000 to 10000 nM	1 to 100 nM	5000 to 10000 nM	500 to 1000 nM
COC(C)C#Cc1cccc2cc([C@H](C)NC(=O)c3c(N)nn4cccnc34)n(-c3ccccc3)c(=O)c12 (stereo not given in full)	5000 to 10000 nM	100 to 500 nM	5000 to 10000 nM	1000 to 10000 nM
CC#Cc1cccc2nc([C@H](C)NC(=O)c3c(N)nn4cccnc34)n(-c3ccccc3)c(=O)c12	500 to 1000 nM	1 to 100 nM	1000 to 5000 nM	1 to 100 nM
C[C@H](NC(=O)c1c(N)nn2cccnc12)c1cc2cccc(C#CCN(C)C)c2c(=O)n1-c1ccccc1	5000 to 10000 nM	500 to 1000 nM	5000 to 10000 nM	100 to 500 nM
C[C@H](NC(=O)c1c(N)nn2cccnc12)c1cc2cccc(C#Cc3ccccc3)c2c(=O)n1-c1ccccc1	1 to 500 nM	1000 to 5000 nM	5000 to 10000 nM	1 to 100 nM
Cc1nn(C)c(C)c1C#Cc1cccc2cc([C@H](C)NC(=O)c3c(N)nn4cccnc34)n(-c3ccccc3)c(=O)c12	5000 to 10000 nM	1000 to 5000 nM	5000 to 10000 nM	1000 to 10000 nM
C[C@H](NC(=O)c1c(N)nn2cccnc12)c1cc2cccc(C#CC3CCNCC3)c2c(=O)n1-c1ccccc1	5000 to 10000 nM	500 to 1000 nM	5000 to 10000 nM	1000 to 10000 nM
C[C@H](O)C#Cc1cccc2cc([C@H](C)NC(=O)c3c(N)nn4cccnc34)n(-c3ccccc3)c(=O)c12	1000 to 5000 nM	1 to 100 nM	1000 to 5000 nM	100 to 500 nM
C[C@H](NC(=O)c1c(N)nn2cccnc12)c1cc2cccc(C#Cc3ccncc3)c2c(=O)n1-c1ccccc1	5000 to 10000 nM	100 to 500 nM	5000 to 10000 nM	100 to 500 nM
C[C@H](NC(=O)c1c(N)nn2cccnc12)c1cc2cccc(C#Cc3cc[nH]c(=O)c3)c2c(=O)n1-c1ccccc1	5000 to 10000 nM	100 to 500 nM	5000 to 10000 nM	100 to 500 nM
C[C@H](NC(=O)c1c(N)nn2cccnc12)c1cc2cccc(C#CCO)c2c(=O)n1-c1ccccc1	500 to 1000 nM	1 to 100 nM	1000 to 5000 nM	1 to 100 nM
C#Cc1cccc2nc([C@H](C)NC(=O)c3c(N)nn4cccnc34)n(-c3ccc(F)c(F)c3)c(=O)c12	5000 to 10000 nM	100 to 500 nM	5000 to 10000 nM	100 to 500 nM
C[C@H](NC(=O)c1c(N)nn2cccnc12)c1cc2cccc(C#CC3CC3)c2c(=O)n1-c1ccccc1	1000 to 5000 nM	100 to 500 nM	1000 to 5000 nM	100 to 500 nM
C[C@H](NC(=O)c1c(N)nn2cccnc12)c1cc2cccc(C#CC3CC3)c2c(=O)n1C1CC1	1000 to 5000 nM	1000 to 5000 nM	1000 to 5000 nM	100 to 500 nM
C#Cc1cccc2nc([C@H](C)NC(=O)c3c(N)nn4cccnc34)n(C)c(=O)c12	1000 to 5000 nM	500 to 1000 nM	500 to 1000 nM	1 to 100 nM
CCOC(C#Cc1cccc2cc([C@H](C)NC(=O)c3c(N)nn4cccnc34)n(-c3ccccc3)c(=O)c12)OCC	5000 to 10000 nM	500 to 1000 nM	5000 to 10000 nM	500 to 1000 nM
C[C@H](NC(=O)c1c(N)nn2cccnc12)c1cc2cccc(NC(=O)c3cnn(C)c3)c2c(=O)n1-c1ccccc1	5000 to 10000 nM	1000 to 5000 nM	5000 to 10000 nM	1000 to 10000 nM
C[C@H](NC(=O)c1c(N)nn2cccnc12)c1cc2cccc(C#CC3CCN(S(C)(=O)=O)CC3)c2c(=O)n1-c1ccccc1	5000 to 10000 nM	500 to 1000 nM	5000 to 10000 nM	500 to 1000 nM
C[C@H](NC(=O)c1c(N)nn2cccnc12)c1cc2cccc(C#CCN3CCOCC3)c2c(=O)n1-c1ccccc1	5000 to 10000 nM	100 to 500 nM	5000 to 10000 nM	1000 to 10000 nM
Cc1ncc(C#Cc2cccc3cc([C@H](C)NC(=O)c4c(N)nn5cccnc45)n(-c4ccccc4)c(=O)c23)s1	5000 to 10000 nM	100 to 500 nM	5000 to 10000 nM	100 to 500 nM
Cc1nn(C)cc1C#Cc1cccc2cc([C@H](C)NC(=O)c3c(N)nn4cccnc34)n(-c3ccccc3)c(=O)c12	5000 to 10000 nM	100 to 500 nM	5000 to 10000 nM	500 to 1000 nM
C[C@H](NC(=O)c1c(N)nn2cccnc12)c1cc2cccc(C#Cc3cnn(C)c3)c2c(=O)n1C1CC1	5000 to 10000 nM		1000 to 5000 nM	100 to 500 nM
